Test results: patent US20120077779A1, “Inhibitors of Fibroblast Activation Protein Alpha” (Trustees of Tufts College, priority 2005, published 2012)
pIC50: −log10 of the molar value.

Biological target: T1, FAP (Homo sapiens, UniProt Q12884)
T1 sequence (Q12884 1-760): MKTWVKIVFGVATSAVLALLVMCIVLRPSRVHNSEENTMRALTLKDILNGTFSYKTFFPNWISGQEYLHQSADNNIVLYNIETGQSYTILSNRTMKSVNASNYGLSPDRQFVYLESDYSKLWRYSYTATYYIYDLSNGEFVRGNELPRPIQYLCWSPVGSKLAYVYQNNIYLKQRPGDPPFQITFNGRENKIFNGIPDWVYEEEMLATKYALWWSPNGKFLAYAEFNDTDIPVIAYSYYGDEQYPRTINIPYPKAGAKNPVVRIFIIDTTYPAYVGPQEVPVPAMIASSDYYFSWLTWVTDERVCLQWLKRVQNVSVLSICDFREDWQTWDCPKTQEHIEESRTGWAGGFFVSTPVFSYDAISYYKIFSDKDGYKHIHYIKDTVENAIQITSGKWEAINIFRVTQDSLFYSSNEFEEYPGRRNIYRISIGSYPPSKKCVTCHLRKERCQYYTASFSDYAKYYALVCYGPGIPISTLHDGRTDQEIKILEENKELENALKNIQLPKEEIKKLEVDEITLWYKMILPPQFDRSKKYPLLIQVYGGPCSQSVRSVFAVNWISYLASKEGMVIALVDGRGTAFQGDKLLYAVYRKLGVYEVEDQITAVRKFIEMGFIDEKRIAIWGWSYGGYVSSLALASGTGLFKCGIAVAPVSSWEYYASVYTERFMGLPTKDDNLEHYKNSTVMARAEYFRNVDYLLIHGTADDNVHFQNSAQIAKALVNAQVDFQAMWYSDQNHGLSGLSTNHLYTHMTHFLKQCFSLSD
Assay: Enzymatic activity of purified FAP, chromogenic substrate H-Ala-Pro-pNA
Type: biochemical
Settings: pH 7.4, 25° C., 10 min pre-incubation with enzyme
Method: The enzymatic activity of purified FAP was measured at 25° C. on a Molecular Devices SPECTRAmax 340PC384 microtiter plate reader by monitoring the absorbance of H-Ala-Pro-pNA (Bachem) as the chromogenic substrate at 410 nm. […] Assays and their corresponding measurements were performed in duplicate. […] Inhibitor stock solutions (1 mM) were prepared in HCl solution (pH 2.0), and stored at −20° C. Stock solutions were diluted with 20 mM TRIS-HCl, KCl (20 mM) buffer at pH 7.4 immediately preceding the experiment according to the protocol.

pIC50	Compound
6.00	CC(C)NCC(=O)N1CCCC1B(O)O (stereo not shown) [Compound 15]
5.66	N#C[C@@H]1CCCN1C(=O)CNC(=O)c1ccccc1 [Compound 30]
4.85	O=C(NCC(=O)N1CCSC1)c1ccccc1 [Compound 31]
4.52	CC(C)[C@H](NC(=O)c1ccccc1)C(=O)N1CCC[C@H]1B(O)O [Compound 32]
5.09	C[C@H](NC(=O)CNC(=O)c1cccc2ccccc12)B(O)O [Compound 33]
5.05	CC[C@H](NC(=O)CNC(=O)c1cccc2ccccc12)B(O)O [Compound 34]

Same assay, conditions: pH 7.4, 25° C., 10 min pre-incubation; result in words

IC50 FAP (pH 7.4)	Compound
no inhib.	CNCC(=O)N1CCCC1B(O)O (stereo not shown) [Compound 12]
no inhib.	CC(=O)N[C@H](C(=O)N[C@@H](C)B(O)O)C(C)C [Compound 35]
no inhib.	CC[C@H](NC(=O)[C@@H](NC(C)=O)C(C)C)B(O)O [Compound 36]

Biological target: DPP IV (Homo sapiens, UniProt P27487)
Assay: DPP IV inhibition (Table 1)
Type: biochemical
Settings: pH 8.0

Sequence of DPP IV (P27487 whole entry, species assumed): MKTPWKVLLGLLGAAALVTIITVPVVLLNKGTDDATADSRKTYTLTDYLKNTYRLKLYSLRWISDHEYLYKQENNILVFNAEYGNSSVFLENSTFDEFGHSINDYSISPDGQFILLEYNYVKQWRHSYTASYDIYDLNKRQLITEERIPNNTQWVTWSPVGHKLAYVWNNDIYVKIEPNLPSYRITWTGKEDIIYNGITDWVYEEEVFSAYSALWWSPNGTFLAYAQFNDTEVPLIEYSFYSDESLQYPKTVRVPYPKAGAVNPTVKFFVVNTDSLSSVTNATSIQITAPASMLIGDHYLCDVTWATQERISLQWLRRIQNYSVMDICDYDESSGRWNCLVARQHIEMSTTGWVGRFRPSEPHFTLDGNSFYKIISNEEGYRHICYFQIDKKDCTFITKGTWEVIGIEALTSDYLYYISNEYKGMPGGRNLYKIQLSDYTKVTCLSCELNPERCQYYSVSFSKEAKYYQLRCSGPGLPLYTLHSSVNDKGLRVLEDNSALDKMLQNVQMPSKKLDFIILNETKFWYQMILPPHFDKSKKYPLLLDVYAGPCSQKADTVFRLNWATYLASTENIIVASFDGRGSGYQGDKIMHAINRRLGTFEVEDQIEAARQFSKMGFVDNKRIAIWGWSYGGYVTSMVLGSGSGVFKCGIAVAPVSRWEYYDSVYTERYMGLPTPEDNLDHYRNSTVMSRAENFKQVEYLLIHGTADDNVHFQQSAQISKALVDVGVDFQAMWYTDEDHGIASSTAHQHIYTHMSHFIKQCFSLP

pIC50	Compound
5.16	NCC(=O)N1CCC[C@H]1B(O)O [Compound 6]
3.25	CNCC(=O)N1CCCC1B(O)O (stereo not shown) [Compound 12]
4.34	CCNCC(=O)N1CCCC1B(O)O (stereo not shown) [Compound 13]
6.05	CC(C)NCC(=O)N1CCCC1B(O)O (stereo not shown) [Compound 15]
